Read-outs that look alike come from different tables or passages of the source. Blank lines part the entries; values can stand above or below the molecule they belong to.
Assays:
[1] = molecular target: E. coli RNR subunit α, catalytic body alone (E-CB) (Escherichia coli, UniProt P00452); experiment: fluorescence anisotropy titration; type: binding
[2] = molecular target: T1, human RNR subunit α, N-terminal domain alone (H-NTD) (Homo sapiens, UniProt P23921); experiment: fluorescence anisotropy titration; type: binding
T1 sequence (P23921 1-91): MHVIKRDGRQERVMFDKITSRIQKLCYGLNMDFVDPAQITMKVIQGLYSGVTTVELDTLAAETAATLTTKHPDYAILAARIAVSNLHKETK

[3] = molecular target: T2, human RNR subunit α (H-α) (Homo sapiens, UniProt P23921); experiment: CDP reductase activity titration with dATP; type: biochemical
T2 sequence (P23921 1-792): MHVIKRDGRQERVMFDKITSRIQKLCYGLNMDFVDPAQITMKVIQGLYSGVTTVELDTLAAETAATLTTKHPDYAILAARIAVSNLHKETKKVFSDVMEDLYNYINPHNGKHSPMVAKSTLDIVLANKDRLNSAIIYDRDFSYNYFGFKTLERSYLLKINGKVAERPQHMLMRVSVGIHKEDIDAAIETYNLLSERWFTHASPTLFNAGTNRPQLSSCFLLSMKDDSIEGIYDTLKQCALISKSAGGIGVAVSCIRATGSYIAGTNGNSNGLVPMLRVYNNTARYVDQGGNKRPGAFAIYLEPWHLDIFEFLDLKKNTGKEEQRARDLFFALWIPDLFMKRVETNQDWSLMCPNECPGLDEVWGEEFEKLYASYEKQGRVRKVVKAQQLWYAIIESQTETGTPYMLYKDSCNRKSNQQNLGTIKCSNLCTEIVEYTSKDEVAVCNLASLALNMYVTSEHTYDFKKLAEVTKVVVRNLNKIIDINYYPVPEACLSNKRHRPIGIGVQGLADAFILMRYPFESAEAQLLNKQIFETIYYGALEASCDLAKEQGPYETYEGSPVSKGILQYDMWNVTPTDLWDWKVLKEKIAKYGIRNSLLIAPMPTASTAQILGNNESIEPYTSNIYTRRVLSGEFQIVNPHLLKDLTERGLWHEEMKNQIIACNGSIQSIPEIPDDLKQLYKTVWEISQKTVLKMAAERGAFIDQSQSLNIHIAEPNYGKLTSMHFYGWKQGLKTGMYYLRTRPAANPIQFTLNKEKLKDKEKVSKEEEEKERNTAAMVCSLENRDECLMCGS

[4] = molecular target: the molecule itself; experiment: SEC
[5] = molecular target: the molecule itself; experiment: SEC; remark: listed apart in the source

Chain of E. coli RNR subunit α, catalytic body alone (E-CB) (P00452 94-761): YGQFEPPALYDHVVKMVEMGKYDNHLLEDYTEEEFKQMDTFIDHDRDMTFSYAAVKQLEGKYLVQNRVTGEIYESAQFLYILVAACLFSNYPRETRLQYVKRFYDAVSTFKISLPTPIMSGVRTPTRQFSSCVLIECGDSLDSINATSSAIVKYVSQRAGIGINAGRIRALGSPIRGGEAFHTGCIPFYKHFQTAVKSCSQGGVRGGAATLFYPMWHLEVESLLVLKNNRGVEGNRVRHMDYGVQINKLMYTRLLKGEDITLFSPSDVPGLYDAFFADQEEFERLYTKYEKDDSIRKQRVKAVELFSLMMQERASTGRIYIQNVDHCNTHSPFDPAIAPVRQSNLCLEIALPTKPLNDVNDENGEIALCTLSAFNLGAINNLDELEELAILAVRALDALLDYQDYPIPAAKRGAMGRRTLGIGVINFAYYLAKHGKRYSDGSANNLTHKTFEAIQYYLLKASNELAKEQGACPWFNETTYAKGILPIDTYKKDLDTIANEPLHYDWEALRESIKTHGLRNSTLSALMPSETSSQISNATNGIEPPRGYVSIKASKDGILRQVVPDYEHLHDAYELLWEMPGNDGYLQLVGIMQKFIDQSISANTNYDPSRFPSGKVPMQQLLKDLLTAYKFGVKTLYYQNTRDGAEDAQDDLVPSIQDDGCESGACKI

Molecule: Texas Red-5-dATP
Kd [1]: 5.3 ± 0.3 µM | Kd [2]: 153 ± 19 µM

EC50 [3]: 33 ± 7 µM
Molecule: Nc1ncnc2c1ncn2[C@H]1C[C@H](O)[C@@H](COP(=O)(O)OP(=O)(O)OP(=O)(O)O)O1 [dATP]

B1: E. coli ribonucleotide reductase subunit β (enzyme)
chain: AYTTFSQTKNDQLKEPMFFGQPVNVARYDQQKYDIFEKLIEKQLSFFWRPEEVDVSRDRIDYQALPEHEKHIFISNLKYQTLLDSIQGRSPNVALLPLISIPELETWVETWAFSETIHSRSYTHIIRNIVNDPSVVFDDIVTNEQIQKRAEGISSYYDELIEMTSYWHLLGEGTHTVNGKTVTVSLRELKKKLYLCLMSVNALEAIRFYVSFACSFAFAERELMEGNAKIIRLIARDEALHLTGTQHMLNLLRSGADDPEMAEIAEECKQECYDLFVQAAQQEKDWADYLFRDGSMIGLNKDILCQYVEYITNIRMQAVGLDLPFQTRSNPIPWINTWLVSDNVQVAPQEVEVSSYLVGQIDSEVDTDDLSNFQL
stoichiometry N [4]: 2

B2: human ribonucleotide reductase subunit α (enzyme, UniProt P23921 1-792, looked up)
chain: MHVIKRDGRQERVMFDKITSRIQKLCYGLNMDFVDPAQITMKVIQGLYSGVTTVELDTLAAETAATLTTKHPDYAILAARIAVSNLHKETKKVFSDVMEDLYNYINPHNGKHSPMVAKSTLDIVLANKDRLNSAIIYDRDFSYNYFGFKTLERSYLLKINGKVAERPQHMLMRVSVGIHKEDIDAAIETYNLLSERWFTHASPTLFNAGTNRPQLSSCFLLSMKDDSIEGIYDTLKQCALISKSAGGIGVAVSCIRATGSYIAGTNGNSNGLVPMLRVYNNTARYVDQGGNKRPGAFAIYLEPWHLDIFEFLDLKKNTGKEEQRARDLFFALWIPDLFMKRVETNQDWSLMCPNECPGLDEVWGEEFEKLYASYEKQGRVRKVVKAQQLWYAIIESQTETGTPYMLYKDSCNRKSNQQNLGTIKCSNLCTEIVEYTSKDEVAVCNLASLALNMYVTSEHTYDFKKLAEVTKVVVRNLNKIIDINYYPVPEACLSNKRHRPIGIGVQGLADAFILMRYPFESAEAQLLNKQIFETIYYGALEASCDLAKEQGPYETYEGSPVSKGILQYDMWNVTPTDLWDWKVLKEKIAKYGIRNSLLIAPMPTASTAQILGNNESIEPYTSNIYTRRVLSGEFQIVNPHLLKDLTERGLWHEEMKNQIIACNGSIQSIPEIPDDLKQLYKTVWEISQKTVLKMAAERGAFIDQSQSLNIHIAEPNYGKLTSMHFYGWKQGLKTGMYYLRTRPAANPIQFTLNKEKLKDKEKVSKEEEEKERNTAAMVCSLENRDECLMCGS
stoichiometry N [5]: 6

B3: human D57N-α (point mutant of human RNR subunit α) (enzyme, UniProt P23921 1-792, looked up)
chain: MHVIKRDGRQERVMFDKITSRIQKLCYGLNMDFVDPAQITMKVIQGLYSGVTTVELNTLAAETAATLTTKHPDYAILAARIAVSNLHKETKKVFSDVMEDLYNYINPHNGKHSPMVAKSTLDIVLANKDRLNSAIIYDRDFSYNYFGFKTLERSYLLKINGKVAERPQHMLMRVSVGIHKEDIDAAIETYNLLSERWFTHASPTLFNAGTNRPQLSSCFLLSMKDDSIEGIYDTLKQCALISKSAGGIGVAVSCIRATGSYIAGTNGNSNGLVPMLRVYNNTARYVDQGGNKRPGAFAIYLEPWHLDIFEFLDLKKNTGKEEQRARDLFFALWIPDLFMKRVETNQDWSLMCPNECPGLDEVWGEEFEKLYASYEKQGRVRKVVKAQQLWYAIIESQTETGTPYMLYKDSCNRKSNQQNLGTIKCSNLCTEIVEYTSKDEVAVCNLASLALNMYVTSEHTYDFKKLAEVTKVVVRNLNKIIDINYYPVPEACLSNKRHRPIGIGVQGLADAFILMRYPFESAEAQLLNKQIFETIYYGALEASCDLAKEQGPYETYEGSPVSKGILQYDMWNVTPTDLWDWKVLKEKIAKYGIRNSLLIAPMPTASTAQILGNNESIEPYTSNIYTRRVLSGEFQIVNPHLLKDLTERGLWHEEMKNQIIACNGSIQSIPEIPDDLKQLYKTVWEISQKTVLKMAAERGAFIDQSQSLNIHIAEPNYGKLTSMHFYGWKQGLKTGMYYLRTRPAANPIQFTLNKEKLKDKEKVSKEEEEKERNTAAMVCSLENRDECLMCGS
stoichiometry N [5]: 2
